Source: ChEMBL document CHEMBL3792274, “Neuroprotective oleanane triterpenes from the roots of Bupleurum chinense” (Bioorg Med Chem Lett, 2016)

Experiments:
HepG2 = assay: Cytotoxicity against human HepG2 cells after 48 hrs by MTT assay; format: cell-based; settings: HepG2, 48 h
Bcap37 = assay: Cytotoxicity against human Bcap37 cells after 48 hrs by MTT assay; format: cell-based; settings: Bcap37, 48 h
SH-SY5Y [1] = assay: Neuroprotective activity against H2O2-induced neuronal cell death in human SH-SY5Y cells assessed as cell viability at 50 uM pretreated for 12 hrs followed by H2O2 addition measured after 3 hrs by MTT assay relative to control; format: functional; settings: read-out: Activity
SH-SY5Y [2] = assay: Neuroprotective activity against H2O2-induced neuronal cell death in human SH-SY5Y cells assessed as cell viability at 100 uM pretreated for 12 hrs followed by H2O2 addition measured after 3 hrs by MTT assay relative to control; format: functional; settings: read-out: Activity
[3] = Cytotoxicity against human Hep3B cells after 48 hrs by MTT assay; format: cell-based, Hep 3B2
A549 = assay: Cytotoxicity against human A549 cells after 48 hrs by MTT assay; format: cell-based; settings: A549, 48 h
SH-SY5Y [4] = assay: Neuroprotective activity against H2O2-induced neuronal cell death in human SH-SY5Y cells assessed as cell viability at 25 uM pretreated for 12 hrs followed by H2O2 addition measured after 3 hrs by MTT assay relative to control; format: functional; settings: read-out: Activity
MCF7 = assay: Cytotoxicity against human MCF7 cells after 48 hrs by MTT assay; format: cell-based; settings: MCF7, 48 h

SMILES	IC50 (HepG2) [µM]	IC50 (Bcap37) [µM]	viability at 50 µM (SH-SY5Y [1]) [%]	viability at 100 µM (SH-SY5Y [2]) [%]	IC50 [3] [µM]	IC50 (A549) [µM]	viability at 25 µM (SH-SY5Y [4]) [%]	IC50 (MCF7) [µM]
CC1(C)CC[C@]23CO[C@@]4(C=C[C@@H]5[C@@]6(C)CC[C@H](O)[C@@](C)(CO)[C@@H]6CC[C@@]5(C)[C@]4(C)C[C@@H]2O)[C@@H]3C1	75.7	> 80	74.2	43.5	> 80	> 80	66.7	> 80
CC1(C)CC[C@]23CO[C@@]4(C=C[C@@H]5[C@@]6(C)CC[C@H](O)[C@@](C)(CO)[C@@H]6CC[C@@]5(C)[C@]4(C)C[C@H]2O)[C@@H]3C1	63.4	> 80	62.4	62.6	> 80	> 80	70	> 80
CC1(C)CC[C@@]2(CO)C(=C3C=C[C@@H]4[C@@]5(C)CC[C@H](O)[C@@](C)(CO)[C@@H]5CC[C@@]4(C)[C@]3(C)C[C@@H]2O)C1	> 80	> 80	79.9	78	> 80	> 80	81.4	> 80
CO[C@@H]1C=C2[C@@H]3CC(C)(C)CC[C@]3(CO)[C@@H](O)C[C@@]2(C)[C@]2(C)CC[C@H]3C(C)(C)[C@@H](O[C@@H]4O[C@H](C)[C@H](O)[C@H](O[C@@H]5O[C@H](CO)[C@@H](O)[C@H](O)[C@H]5O)[C@H]4O)CC[C@]3(C)[C@@H]12	43.2	> 80	7.15	6.02	> 80	> 80	64.9	> 80
CC1(C)CC[C@@]2(CO)C(=C3C=C[C@@H]4[C@@]5(C)CC[C@H](O)[C@@](C)(CO)[C@@H]5CC[C@@]4(C)[C@]3(C)C[C@H]2O)C1	> 80	> 80	82.5	79.3	> 80	> 80	83.4	> 80
C[C@H]1O[C@@H](O[C@H]2CC[C@@]3(C)[C@@H](CC[C@]4(C)[C@@H]3[C@H](O)C=C3[C@@H]5CC(C)(C)CC[C@]5(CO)[C@@H](O)C[C@]34C)[C@]2(C)CO)[C@H](O)[C@@H](O[C@@H]2O[C@H](CO)[C@@H](O)[C@H](O)[C@H]2O)[C@H]1O	> 80	> 80	54.4	55.6	> 80	> 80	57.5	> 80
C[C@H]1O[C@@H](O[C@H]2CC[C@@]3(C)[C@@H](CC[C@]4(C)[C@@H]3C=CC3=C5CC(C)(C)CC[C@]5(CO)[C@H](O)C[C@]34C)[C@]2(C)CO)[C@H](O)[C@@H](O[C@@H]2O[C@H](CO)[C@@H](O)[C@H](O)[C@H]2O)[C@H]1O	35.1	> 80	59.5	33.3	> 80	> 80	66.9	> 80
CC(=O)OC[C@H]1O[C@@H](O[C@H]2[C@@H](O)[C@@H](C)O[C@@H](O[C@H]3CC[C@@]4(C)[C@@H](CC[C@]5(C)[C@@H]4C=CC4=C6CC(C)(C)CC[C@]6(CO)[C@H](O)C[C@]45C)[C@]3(C)CO)[C@@H]2O)[C@H](O)[C@@H](O)[C@@H]1O	21.8	> 80	7.24	7.64	> 80	69.3	14.3	46.5
CO[C@@H]1C=C2[C@@H]3CC(C)(C)CC[C@]3(CO)[C@H](O)C[C@@]2(C)[C@]2(C)CC[C@H]3[C@](C)(CO)[C@@H](O[C@@H]4O[C@H](C)[C@H](O)[C@H](O[C@@H]5O[C@H](COC(C)=O)[C@@H](O)[C@H](O)[C@H]5O)[C@H]4O)CC[C@]3(C)[C@@H]12	–	–	7.12	7.16	–	–	11.7	–
C[C@H]1O[C@@H](O[C@H]2CC[C@@]3(C)[C@@H](CC[C@]4(C)[C@@H]3[C@H](O)C=C3[C@@H]5CC(C)(C)CC[C@]5(CO)[C@@H](O)C[C@]34C)[C@]2(C)CO)[C@H](O)[C@@H](O)[C@H]1O	19.4	20.2	11.4	6.3	39.6	58.1	67.6	29.4
CC1(C)CC[C@]2(CO)C(=O)C[C@]3(C)C(=C2C1)C=C[C@@H]1[C@@]2(C)CC[C@H](O)[C@@](C)(CO)[C@@H]2CC[C@]13C	> 80	> 80	80.6	77.8	> 80	> 80	78.2	> 80
CO[C@@H]1C=C2[C@@H]3CC(C)(C)C[C@H](O)[C@]3(CO)[C@@H](O)C[C@@]2(C)[C@]2(C)CC[C@@H]3[C@](C)(CCC(=O)[C@@]3(C)CO)[C@@H]12	65.9	> 80	70.2	67.2	> 80	> 80	75.6	> 80
CC1(C)CC[C@@]2(CO)C(=C3C=C[C@@H]4[C@@]5(C)CCC(=O)[C@@](C)(CO)[C@@H]5CC[C@@]4(C)[C@]3(C)C[C@H]2O)C1	> 80	> 80	74.1	75.1	> 80	> 80	77.2	> 80
CO[C@@H]1C=C2[C@@H]3CC(C)(C)CC[C@]3(CO)[C@@H](O)C[C@@]2(C)[C@]2(C)CC[C@H]3[C@](C)(CO)[C@@H](O[C@@H]4O[C@H](C)[C@H](O)[C@H](O[C@@H]5O[C@H](CO)[C@@H](O)[C@H](O)[C@H]5O)[C@H]4O)CC[C@]3(C)[C@@H]12	27.5	> 80	8.25	6.16	> 80	> 80	63.1	64.3
CC(=O)O[C@H]1[C@H](O[C@H]2[C@@H](O)[C@@H](C)O[C@@H](O[C@H]3CC[C@@]4(C)[C@@H](CC[C@]5(C)[C@@H]4C=CC4=C6CC(C)(C)CC[C@]6(CO)[C@H](O)C[C@]45C)[C@]3(C)CO)[C@@H]2O)O[C@H](CO)[C@@H](O)[C@@H]1O	18.9	23.5	7.28	7.36	23	56	9.38	42.2
C[C@@H]1O[C@@H](O[C@H]2[C@H](O)[C@@H](O)[C@H](O[C@@H]3CC[C@]4(C)[C@H](CC[C@@]5(C)[C@H]4CC=C4[C@H]6CC(C)(C)CC[C@@]6(CO)[C@H](O)C[C@@]45C)C3(C)C)O[C@@H]2CO[C@H]2O[C@@H](CO)[C@H](O)[C@@H](O)[C@@H]2O)[C@H](O)[C@H](O)[C@H]1O	> 80	> 80	53	8.66	37.8	> 80	51.4	> 80
O=c1[nH]cc(F)c(=O)[nH]1 [FLUOROURACIL]	49.7	47.1	–	–	10.5	–	–	42.8
Cc1c(C)c2c(c(C)c1O)CCC(C)(C(=O)O)O2 (stereo not given) [TROLOX]	–	–	73.7	75.2	–	–	67	–
